Here are results for one substance from US8173428B2, “LNA oligonucleotides and the treatment of cancer” (Santaris Pharma A/S, priority 2004, dated 2012).

The subject of the data set is human Survivin RNA. Nature of the data set: Survivin mRNA knockdown in transfected 15PC3 cells by real-time PCR. The class given is cell-based. How it is done:
Cell culturing and transfections: 15PC3 cells were seeded in 12-well plates and grown for two days at 37° C. (5% CO2) in DMEM supplemented with 10% FBS, Glutamax I and Gentamicin. When the cells were 60-70% confluent, they were transfected in duplicates with different concentrations of oligonucleotides (0.2-25 nM) using Lipofectamine 2000 (10 μg/ml). Transfections were carried out essentially as described by Dean et al. (1994, JBC 269:16416-16424). In short, cells were incubated for 10 min. with Lipofectamine in OptiMEM followed by addition of oligonucleotide to a total volume of 0.5 ml transfection mix per well. […] Cells were then harvested for protein and RNA analysis.
Total RNA was isolated using RNeasy mini kit (Qiagen). Cells were washed with PBS, and Cell Lysis Buffer (RTL, Qiagen) supplemented with 1% mercaptoethanol was added directly to the wells. After a few minutes, the samples were processed according to manufacturer's instructions.
First strand synthesis was performed using OmniScript Reverse Transcriptase kit according to the manufacturer's instructions (Qiagen). For each sample, 0.5 μg total RNA was adjusted to 12 μl and mixed with 0.2 μl poly (dT)12-18 (0.5 μg/μl) (Life Technologies), 2 μl dNTP mix (5 mM each), 2 μl 10× RT buffer, 0.5 μl RNAguard™ RNase Inhibitor (33 units/ml, Amersham) and 1 μl OmniScript Reverse Transcriptase followed by incubation at 37° C. for 60 min. and heat inactivation at 93° C. for 5 min.
To determine the relative Survivin mRNA level in oligonucleotide treated and untreated cells, the generated cDNA was used in quantitative PCR analysis using an iCycler from BioRad. The cDNA was diluted 5-fold and 8 μl was mixed with 52 μl Taqman probe master mix containing 30 μl Platinum Quantitative PCR SuperMix UDG 2×PCR master mix (Invitrogen), 3 μl 20× Taqman probe and primer mix (forward primer: 5′[…] (SEQ ID NO:29), final 0.9 μM. Reverse primer: 5′[…] (SEQ ID NO:30), final 0.6 μM and taqman probe: FAM-[…]-TAMRA (SEQ ID NO:31), final 0.1 μM) and 19 μl H2O. The 60 μl were dispersed in two wells (96 well plates) with […] in each well. For human Bcl-2 the PCR primers were: […]
The primers and probe were obtained from […] (France). To normalize any variance in sample preparation, the endogenous GAPDH mRNA was quantified using a pre-developed Taqman assay reagent from Applied Biosystems (4310884E) according to manufacturer's Instructions. Two-fold dilutions of cDNA, synthesised from untreated 15PC3 cells (expressing both Survivin and GAPDH), was used to prepare standard curves for the assays. The PCR program was as follows: 50° C. for 2 min., 95° C. for 10 min. followed by 40 cycles of 95° C. 15 sec., 60° C. 1 min. Relative quantities of Survivin mRNA were determined from the calculated threshold cycle using the iCycler IQ Real Time Detection System software.
In accordance with the present invention, a series of oligonucleotides were designed to target different regions of the human Survivin RNA, using published sequences (GenBank accession number NM_001168).
LNA oligonucleotides were evaluated for their potential to knockdown Survivin mRNA in 15PC3 cells. The data are presented as percentage down-regulation relative to mock transfected cells. Transcript steady state was monitored by Real-time PCR and normalised to the GAPDH transcript steady state, see Table 3. Note that all LNA C are 5-methyl-Cytosine.
In general terms: In qPCR the cycle at which signal appears reflects the starting amount.

Setting [1] is: Survivin mRNA down-regulation relative to mock, normalised to GAPDH, standard deviation in brackets, at least three experiments.

Oligonucleotides are written 5' to 3', each unit as a sugar letter and its base; * is a phosphorothioate linkage, no mark a phosphodiester; rarer units and linkages stand in square brackets, end groups in braces. Plain capitals give the bases only. l = locked nucleic acid (LNA); [5mC] = 5-methylcytosine; d = 2'-deoxy (DNA)

A word on the IC50: it is the concentration that inhibits the measured activity by half. A high value points to weaker potency in that assay. For the substance “5′-^MeCsTs^MeCsAsastscscsastsgsgs^MeCsAsGsc-3′ (l[5mC]*lT*l[5mC]*lA*dA*dT*dC*dC*dA*dT*dG*dG*l[5mC]*lA*lG*dC) [SEQ ID NO. 2]”, the “Survivin mRNA expression” value (2 nM combined with 10 nM Taxol, 24 hours and 48 hours, relative to mock (0.1% DMSO)) was “down-regulated”; the “Survivin mRNA expression” value (2 nM, 24 hours and 48 hours, relative to mock (0.1% DMSO)) was “down-regulated”; the “Survivin mRNA expression” value (10 nM, 24 hours, single agent or combined with control oligonucleotides) is “have effects on Survivin and Bcl-2 expression”. Under setting [1], this substance came in with an IC50 of 2.9 nM. In addition, the “IC75 [nM]” value under setting [1] is 4.8 (0.3) nM.
